Laboratory results from patent publication US8436035B2, “Organic compounds” (Novartis AG, priority 2006, dated 2013).
pIC50: −log10 of the molar value.

Experiments:
[1] = target: T1, aldosterone synthase (CYP11B2) (Homo sapiens, UniProt P19099); assay: in vitro aldosterone synthase inhibition, aldosterone production in Ang II-stimulated NCI-H295R cells; format: cell-based; settings: read-out: AS IC50
T1 construct: host or cells: NCI-H295R
T1 sequence (P19099 25-503): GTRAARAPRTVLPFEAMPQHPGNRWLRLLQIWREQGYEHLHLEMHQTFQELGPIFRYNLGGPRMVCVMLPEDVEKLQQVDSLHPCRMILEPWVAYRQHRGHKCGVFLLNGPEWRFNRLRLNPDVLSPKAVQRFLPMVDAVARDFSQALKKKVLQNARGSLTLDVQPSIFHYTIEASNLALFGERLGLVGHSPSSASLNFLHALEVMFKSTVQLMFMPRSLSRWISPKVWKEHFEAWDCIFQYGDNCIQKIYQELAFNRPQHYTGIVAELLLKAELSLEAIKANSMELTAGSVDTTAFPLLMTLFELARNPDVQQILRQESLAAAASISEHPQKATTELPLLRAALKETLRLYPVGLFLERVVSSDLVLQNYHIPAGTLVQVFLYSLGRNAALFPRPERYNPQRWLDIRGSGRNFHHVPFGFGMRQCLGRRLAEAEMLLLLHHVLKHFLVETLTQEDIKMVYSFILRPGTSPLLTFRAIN
From the text: In particular, the aldosterone synthase inhibitory activities in vitro can be determined by the following assay.
Human adrenocortical carcinoma NCI-H295R cell line is obtained from American Type Culture Collection (Manassas, Va.). Insulin/transferrin/selenium (ITS)-A supplement (100×), DMEM/F-12, antibiotic/antimycotic (100×), and fetal calf serum (FCS) are purchased from Gibco (Grand Island, N.Y.). Anti-mouse PVT scintillation proximity assay (SPA) beads and NBS 96-well plates are obtained from Amersham (Piscataway, N.J.) and Corning (Acton, Mass.), respectively. Solid black 96-well flat bottom plates were purchased from Costar (Corning, N.Y.). Aldosterone and angiotensin (Ang II) are purchased from Sigma (St. Louis, Mo.). D-[1,2,6,7-^3H(N)]aldosterone was acquired from PerkinElmer (Boston, Mass.). Nu-serum was a product of BD Biosciences (Franklin Lakes, N.J.).
For in vitro measurement of aldosterone activity, human adrenocortical carcinoma NCI-H295R cells are seeded in NBS 96-well plates at a density of 25,000 cells/well in 100 μl of a growth medium containing DMEM/F12 supplemented with 10% FCS, 2.5% Nu-serum, 1 μg ITS/ml, and 1× antibiotic/antimycotic. The medium is changed after culturing for 3 days at 37° C. under an atmosphere of 5% CO2/95% air. On the following day, cells are rinsed with 100 μl of DMEM/F12 and incubated with 100 μl of treatment medium containing 1 μM Ang II and a compound at different concentrations in quadruplicate wells at 37° C. for 24 hr. At the end of incubation, 50 μl of medium is withdrawn from each well for measurement of aldosterone production by an RIA using mouse anti-aldosterone monoclonal antibodies.
Measurement of aldosterone activity can also be performed using a 96-well plate format. Each test sample is incubated with 0.02 μCi of D-[1,2,6,7-^3H(N)]aldosterone and 0.3 μg of anti-aldosterone antibody in phosphate-buffered saline (PBS) containing 0.1% Triton X-100, 0.1% bovine serum albumin, and 12% glycerol in a total volume of 200 μl at room temperature for 1 hr. Anti-mouse PVT SPA beads (50 μl) are then added to each well and incubated overnight at room temperature prior to counting in a Microbeta plate counter. The amount of aldosterone in each sample is calculated by comparing with a standard curve generated using known quantities of the hormone.

[2] = target: T2, CYP11B1 (Homo sapiens, UniProt P15538); assay: in vitro CYP11B1 inhibition, steroid release from NCI-H295R cells; format: cell-based; settings: for inhibition at 0.1 µM: NCI-H295R, read-out: 11B1 % I @ 100 nM
T2 construct: Thus, the NCI-H295R cells have Cyp11 B1 (steroid 11 p-hydroxylase); host or cells: NCI-H295R
T2 sequence (P15538 25-503): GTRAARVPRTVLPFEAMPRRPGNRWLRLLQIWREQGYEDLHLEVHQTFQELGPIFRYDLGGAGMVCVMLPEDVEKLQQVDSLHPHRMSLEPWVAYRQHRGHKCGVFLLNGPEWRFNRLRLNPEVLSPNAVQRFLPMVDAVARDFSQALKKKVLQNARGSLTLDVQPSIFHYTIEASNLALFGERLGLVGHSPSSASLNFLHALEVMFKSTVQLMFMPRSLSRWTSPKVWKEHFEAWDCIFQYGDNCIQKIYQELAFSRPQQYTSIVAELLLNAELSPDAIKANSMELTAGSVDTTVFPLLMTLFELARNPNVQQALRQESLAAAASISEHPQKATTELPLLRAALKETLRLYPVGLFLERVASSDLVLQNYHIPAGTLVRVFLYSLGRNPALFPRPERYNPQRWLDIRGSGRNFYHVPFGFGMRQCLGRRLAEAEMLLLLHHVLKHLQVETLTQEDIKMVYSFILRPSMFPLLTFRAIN
From the text: The in vitro inhibitory activities for CYP11B1 can be determined by the following assay.
The cell line NCI-H295R was originally isolated from an adrenocortical carcinoma and has been characterized in the literature through the stimulable secretion of steroid hormones and the presence of the enzymes essential for steroidogenesis. Thus, the NCI-H295R cells have Cyp11 B1 (steroid 11 p-hydroxylase). The cells show the physiological property of zonally undifferentiated human foetal adrenocortical cells which, however, have the capacity to produce the steroid hormones which are formed in the three, phenotypically distinguishable zones in the adult adrenal cortex.
The NCI-H295R cells (American Type Culture Collection, ATCC, Rockville, Md., USA) are grown in Dulbeoco's Modified Eagle'Ham F-12 Medium (DME/F12), which has been I supplemented with Ulroser SF Serum (Soprachem, Cergy-Saint-Christophe, France), insulin, transferrin, selenite (I-T-S, Becton Dickinson Biosciences, Franklin lakes, NJ, USA) and antibiotics in 75 cm^2 cell culture vessels at 37° C. and in a 95% air-5% carbon dioxide atmosphere. The cells are subsequently transferred for colony formation into a 24-well incubation vessel. They are cultivated there in DME/F12 medium, which is now supplemented with 0.1% bovine serum instead of Ultroser SF for 24 hours. The experiment is initiated by cultivating the cells in DME/F12 medium which is supplemented with 0.1% bovine serum albumin and test compound, in the presence or absence of cell stimulants, for 72 hours. The test substance is added in a concentration range from 0.2 nanomolar to […]. Cell stimulants which can be used are angiotensin 11 ([…] or 100 nanomolar), potassium ions (16 millimolar), forskolin (10 micromolar) or a combination of two stimulants.
The excretion of aldosterone, cortisol, corticosterone and estradiol/estrone into the culture medium can be detected and quantified by commercially available, specific monoclonal antibodies in radioimmunoassays in accordance with the manufacturer's instructions.
Inhibition of the release of certain steroids can be used as a measure of the respective enzyme inhibition by the added test compounds. The dose-dependent inhibition of enzymic activity by a compound is calculated by means of an inhibition plot which is characterized by an IC50.
The IC50 values for active test compounds are ascertained by a […] in order to construct inhibition plots without data weighting. The inhibition plot is calculated by fting a 4-parameter logistic function to the raw data points using the least squares method. The equation of the 4-parameter logistic function is calculated as follows: Y=(d−a)/((1+(x/c)b))+a I where: a=minimum data level b=gradient I c=ICED, d=maximum data level x=inhibitor concentration.

CCc1cncn1C1CC(C)(C)c2ccccc21 (stereo not shown) [Compound 22, 1-(3,3-Dimethyl-indan-1-yl)-5-ethyl-1H-imidazole]
pIC50 [1]: 6.71
inhibition at 0.1 µM [2]: 100%

CC1(C)C(n2cncc2CO)c2ccccc2S1(=O)=O (stereo not shown) [Compound 24, [3-(2,2-Dimethyl-1,1-dioxo-2,3-dihydro-1H-1lambda*6*-benzo[b]thiophen-3-yl)-3H-imidazol-4-yl]-methanol]
pIC50 [1]: 6.71
inhibition at 0.1 µM [2]: 93%

COC(=O)c1cncn1C1c2ccccc2OC1(C)C (stereo not shown) [Compound 25, 3-(2,2-Dimethyl-2,3-dihydro-benzofuran-3-yl)-3H-imidazole-4-carboxylic acid methyl ester]
pIC50 [1]: 7.34
inhibition at 0.1 µM [2]: 96%

CC(C)OC(=O)c1cncn1C1CCCCc2ccccc21 (stereo not shown) [Compound 26, 3-(6,7,8,9-Tetrahydro-5H-benzocyclohepten-5-yl)-3H-imidazole-4-carboxylic acid isopropyl ester]
pIC50 [1]: 8.30
inhibition at 0.1 µM [2]: 99%

spiro[cyclopentane-1,2′-[3′-(7′-methyl-chroman-4′-yl)-3′H-imidazole-4′-carboxylic acid methyl ester]] [Compound 17]
pIC50 [1]: 6.76
11B1 % I @ 100 nM ([2]; 100 nM): 100%
